Results taken from patent US10562887B2, “Triazolones and tetrazolones as inhibitors of ROCK” (BRISTOL-MYERS SQUIBB COMPANY, priority 2016, dated 2020).

Target: ROCK2 (Homo sapiens (Human), UniProt O75116)
Assay: ROCK2 assay (peptide phosphorylation, LABCHIP 3000 Reader)
Format: biochemical
Conditions: 5 μM ATP, 1.5 μM peptide substrate
How it was run: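 Human ROCK2 reaction in 20 mM HEPES pH 7.5, 20 mM MgCl2, 0.015% Brij-35, 4 mM DTT, with 5 μM ATP and 1.5 μM FITC-labelled peptide, DMSO <2%. Stopped with EDTA; phosphorylated and unphosphorylated peptide separated by microfluidic mobility shift. IC50 from dose-response curve fit.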

Sequence of ROCK2 (O75116 whole entry, species assumed): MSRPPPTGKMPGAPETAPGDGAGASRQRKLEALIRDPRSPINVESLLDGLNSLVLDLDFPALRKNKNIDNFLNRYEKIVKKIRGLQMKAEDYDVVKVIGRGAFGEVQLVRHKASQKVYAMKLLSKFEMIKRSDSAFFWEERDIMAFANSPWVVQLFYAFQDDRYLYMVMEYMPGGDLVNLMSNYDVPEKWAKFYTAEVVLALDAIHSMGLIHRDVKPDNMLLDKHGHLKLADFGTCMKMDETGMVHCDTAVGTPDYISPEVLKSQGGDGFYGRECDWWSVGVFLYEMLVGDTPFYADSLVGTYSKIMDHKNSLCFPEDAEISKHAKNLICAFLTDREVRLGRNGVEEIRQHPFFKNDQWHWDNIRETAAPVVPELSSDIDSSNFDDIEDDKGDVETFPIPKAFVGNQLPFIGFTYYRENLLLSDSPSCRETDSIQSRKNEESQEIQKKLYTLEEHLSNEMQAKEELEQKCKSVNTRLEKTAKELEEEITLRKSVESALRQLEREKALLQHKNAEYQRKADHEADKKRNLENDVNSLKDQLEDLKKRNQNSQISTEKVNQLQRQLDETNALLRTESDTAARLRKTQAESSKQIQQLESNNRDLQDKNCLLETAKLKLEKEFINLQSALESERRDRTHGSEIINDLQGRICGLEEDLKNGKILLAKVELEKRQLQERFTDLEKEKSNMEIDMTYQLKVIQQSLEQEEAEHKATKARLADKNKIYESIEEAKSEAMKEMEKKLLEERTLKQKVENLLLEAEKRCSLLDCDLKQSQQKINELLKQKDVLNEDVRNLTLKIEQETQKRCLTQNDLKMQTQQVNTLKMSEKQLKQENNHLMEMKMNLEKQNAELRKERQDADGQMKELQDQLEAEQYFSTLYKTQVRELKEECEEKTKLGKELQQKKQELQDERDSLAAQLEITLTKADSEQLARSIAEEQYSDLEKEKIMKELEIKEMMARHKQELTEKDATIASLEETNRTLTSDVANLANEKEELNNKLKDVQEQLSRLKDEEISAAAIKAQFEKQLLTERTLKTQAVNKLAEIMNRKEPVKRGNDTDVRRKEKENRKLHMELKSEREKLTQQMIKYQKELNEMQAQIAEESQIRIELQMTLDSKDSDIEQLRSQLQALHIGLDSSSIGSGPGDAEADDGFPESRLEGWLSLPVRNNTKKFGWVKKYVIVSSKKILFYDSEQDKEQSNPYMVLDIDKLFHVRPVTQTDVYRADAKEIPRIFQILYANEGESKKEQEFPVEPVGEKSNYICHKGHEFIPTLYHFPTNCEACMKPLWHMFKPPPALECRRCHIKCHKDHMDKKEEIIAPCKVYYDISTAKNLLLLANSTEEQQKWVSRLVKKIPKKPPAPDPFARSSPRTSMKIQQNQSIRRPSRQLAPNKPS

SMILES | IC50 [nM]
Cc1nn(-c2ccc(-c3cn[nH]c3)cc2)c(=O)n1Cc1cccc(OC(F)F)c1 [Example 102, 1-(4-(1H-pyrazol-4-yl)phenyl)-4-(3-(difluoromethoxy)benzyl)-3-methyl-1H-1,2,4-triazol-5(4H)-one] | 50 to 250
Cc1nn(-c2ccc(-c3cn[nH]c3)cc2)c(=O)n1Cc1cccc(C#N)c1 [Example 103, 3-((1-(4-(1H-pyrazol-4-yl)phenyl)-3-methyl-5-oxo-1H-1,2,4-triazol-4(5H)-yl)methyl)benzonitrile] | 250 to 2000
Cc1nn(-c2ccc(-c3cn[nH]c3)cc2)c(=O)n1Cc1c(F)cccc1F [Example 104, 1-(4-(1H-pyrazol-4-yl)phenyl)-4-(2,6-difluorobenzyl)-3-methyl-1H-1,2,4-triazol-5(4H)-one] | 50 to 250
COc1cc(Cn2c(C)nn(-c3ccc(-c4cn[nH]c4)cc3)c2=O)cc(OC)c1 [Example 120, 1-(4-(1H-pyrazol-4-yl)phenyl)-4-(3,5-dimethoxybenzyl)-3-methyl-1H-1,2,4-triazol-5(4H)-one] | 250 to 2000
COc1cc(Cn2c(C)nn(-c3ccc(-c4cn[nH]c4)cc3)c2=O)ccc1F [Example 121, 1-(4-(1H-pyrazol-4-yl)phenyl)-4-(4-fluoro-3-methoxybenzyl)-3-methyl-1H-1,2,4-triazol-5(4H)-one] | < 5
COc1cccc(Cn2c(C)nn(-c3ccc(-c4cn[nH]c4)cc3)c2=O)c1F [Example 122, 1-(4-(1H-pyrazol-4-yl)phenyl)-4-(2-fluoro-3-methoxybenzyl)-3-methyl-1H-1,2,4-triazol-5(4H)-one] | 250 to 2000
COc1ccc(F)cc1Cn1c(C)nn(-c2ccc(-c3cn[nH]c3)cc2)c1=O [Example 123, 1-(4-(1H-pyrazol-4-yl)phenyl)-4-(5-fluoro-2-methoxybenzyl)-3-methyl-1H-1,2,4-triazol-5(4H)-one] | 50 to 250
COc1ccc(Cn2c(C)nn(-c3ccc(-c4cn[nH]c4)cc3)c2=O)cc1F [Example 124, 1-(4-(1H-pyrazol-4-yl)phenyl)-4-(3-fluoro-4-methoxybenzyl)-3-methyl-1H-1,2,4-triazol-5(4H)-one] | 250 to 2000
COc1cccc(Cn2c(CO)nn(-c3ccc(-c4cn[nH]c4)cc3)c2=O)c1 [Example 125, 1-(4-(1H-pyrazol-4-yl)phenyl)-3-(hydroxymethyl)-4-(3-methoxybenzyl)-1H-1,2,4-triazol-5(4H)-one] | < 5
O=c1n(-c2ccc(-c3cn[nH]c3)cc2)nc(CO)n1Cc1ccccc1 [Example 126, 1-(4-(1H-pyrazol-4-yl)phenyl)-4-benzyl-3-(hydroxymethyl)-1H-1,2,4-triazol-5(4H)-one] | 5 to 50
COc1cc(Cn2c(CO)nn(-c3ccc(-c4cn[nH]c4)cc3)c2=O)cc(OC)c1 [Example 127, 1-(4-(1H-pyrazol-4-yl)phenyl)-4-(3,5-dimethoxybenzyl)-3-(hydroxymethyl)-1H-1,2,4-triazol-5(4H)-one] | 50 to 250
O=c1n(-c2ccc(-c3cn[nH]c3)cc2)nc(CO)n1Cc1cccc(F)c1 [Example 128, 1-(4-(1H-pyrazol-4-yl)phenyl)-4-(3-fluorobenzyl)-3-(hydroxymethyl)-1H-1,2,4-triazol-5(4H)-one] | 5 to 50
O=c1n(-c2ccc(-c3cn[nH]c3)cc2)nc(CO)n1Cc1cc(F)ccc1F [Example 129, 1-(4-(1H-pyrazol-4-yl)phenyl)-4-(2,5-difluorobenzyl)-3-(hydroxymethyl)-1H-1,2,4-triazol-5(4H)-one] | 5 to 50

Other lines, results leading:

IC50 [nM] | SMILES
5 to 50 | COc1cc(-n2nc(C)n(Cc3ccc(F)cc3)c2=O)ccc1-c1cn[nH]c1 [Example 101, 4-(4-fluorobenzyl)-1-(3-methoxy-4-(1H-pyrazol-4-yl)phenyl)-3-methyl-1H-1,2,4-triazol-5(4H)-one]
5 to 50 | CCc1cc(-n2nc(C)n(Cc3cccc(OC)c3)c2=O)ccc1-c1cn[nH]c1 [Example 105, 1-(3-ethyl-4-(1H-pyrazol-4-yl)phenyl)-4-(3-methoxybenzyl)-3-methyl-1H-1,2,4-triazol-5(4H)-one]
5 to 50 | CCc1cc(-n2nc(C)n(Cc3cccc(F)c3)c2=O)ccc1-c1cn[nH]c1 [Example 106, 1-(3-ethyl-4-(1H-pyrazol-4-yl)phenyl)-4-(3-fluorobenzyl)-3-methyl-1H-1,2,4-triazol-5(4H)-one]
50 to 250 | CCc1cc(-n2nc(C)n(Cc3cc(F)ccc3F)c2=O)ccc1-c1cn[nH]c1 [Example 107, 4-(2,5-difluorobenzyl)-1-(3-ethyl-4-(1H-pyrazol-4-yl)phenyl)-3-methyl-1H-1,2,4-triazol-5(4H)-one]
5 to 50 | CCc1cc(-n2nc(C)n(Cc3cc(F)cc(F)c3)c2=O)ccc1-c1cn[nH]c1 [Example 108, 4-(3,5-difluorobenzyl)-1-(3-ethyl-4-(1H-pyrazol-4-yl)phenyl)-3-methyl-1H-1,2,4-triazol-5(4H)-one]
250 to 2000 | CCc1cc(-n2nc(C)n(C(C)c3ccccc3)c2=O)ccc1-c1cn[nH]c1 (stereo not shown) [Example 109, 1-(3-ethyl-4-(1H-pyrazol-4-yl)phenyl)-3-methyl-4-(1-phenylethyl)-1H-1,2,4-triazol-5(4H)-one]
250 to 2000 | CCc1cc(-n2nc(C)n(CCc3ccccc3)c2=O)ccc1-c1cn[nH]c1 [Example 110, 1-(3-ethyl-4-(1H-pyrazol-4-yl)phenyl)-3-methyl-4-phenethyl-1H-1,2,4-triazol-5(4H)-one]
250 to 2000 | CCc1cc(-n2nc(C)n(Cc3cccc(C#N)c3)c2=O)ccc1-c1cn[nH]c1 [Example 111, 3-((1-(3-ethyl-4-(1H-pyrazol-4-yl)phenyl)-3-methyl-5-oxo-1H-1,2,4-triazol-4(5H)-yl)methyl)benzonitrile]
50 to 250 | CCc1cc(-n2nc(C)n(Cc3cccc(OC(F)F)c3)c2=O)ccc1-c1cn[nH]c1 [Example 112, 4-(3-(difluoromethoxy)benzyl)-1-(3-ethyl-4-(1H-pyrazol-4-yl)phenyl)-3-methyl-1H-1,2,4-triazol-5(4H)-one]
50 to 250 | CCc1cc(-n2nc(C)n(Cc3ccccc3F)c2=O)ccc1-c1cn[nH]c1 [Example 113, 1-(3-ethyl-4-(1H-pyrazol-4-yl)phenyl)-4-(2-fluorobenzyl)-3-methyl-1H-1,2,4-triazol-5(4H)-one]
250 to 2000 | CCc1cc(-n2nc(C)n(Cc3ccc(F)cc3)c2=O)ccc1-c1cn[nH]c1 [Example 114, 1-(3-ethyl-4-(1H-pyrazol-4-yl)phenyl)-4-(4-fluorobenzyl)-3-methyl-1H-1,2,4-triazol-5(4H)-one]
5 to 50 | CCc1cc(-n2nc(C)n(Cc3cc(F)cc(OC)c3)c2=O)ccc1-c1cn[nH]c1 [Example 115, 1-(3-ethyl-4-(1H-pyrazol-4-yl)phenyl)-4-(3-fluoro-5-methoxybenzyl)-3-methyl-1H-1,2,4-triazol-5(4H)-one]
250 to 2000 | CCc1cc(-n2nc(C)n(Cc3c(F)cccc3F)c2=O)ccc1-c1cn[nH]c1 [Example 116, 4-(2,6-difluorobenzyl)-1-(3-ethyl-4-(1H-pyrazol-4-yl)phenyl)-3-methyl-1H-1,2,4-triazol-5(4H)-one]
5 to 50 | CCc1cc(-n2nc(C)n(Cc3ccccc3)c2=O)ccc1-c1cn[nH]c1 [Example 117, 4-benzyl-1-(3-ethyl-4-(1H-pyrazol-4-yl)phenyl)-3-methyl-1H-1,2,4-triazol-5(4H)-one]
5 to 50 | O=c1n(-c2ccc(-c3cn[nH]c3)cc2)nc(CO)n1Cc1cc(F)cc(F)c1 [Example 130, 1-(4-(1H-pyrazol-4-yl)phenyl)-4-(3,5-difluorobenzyl)-3-(hydroxymethyl)-1H-1,2,4-triazol-5(4H)-one]
